System: gastric secretion (gastric acid output) in chronic gastrostormy tube-implanted dogs
Assay: Gastric secretion inhibitory action in chronic gastrostormy tube-implanted dogs (histamine-stimulated)
Format: in vivo
Conditions: i.d., histamine i.v.; for Gastric secretion inhibitory action (%): first day, 1 h 40 min to 2 h after administration; for Gastric secretion inhibition duration (%): second day (24 hours after administration)
Procedure: Gastric Secretion Inhibitory Action in Chronic Gastrostormy Tube-Implanted Dogs
Large dogs (body weight: 14-19 kg) having chronic gastrostormy tubes implanted were used to examine the gastric secretion inhibitory action and gastric secretion inhibitory action durations of the example compounds. The experiment was conducted over a period of 2 days. On the first day, histamine (50 or 75 μg/kg/h) was continuously administered intravenously for 3 hours and gastric juice was taken every 20 minutes. One hour after starting histamine administration, the example compound suspended or dissolved in a 0.5% methylcellulose solution was administered to the duodenum through an indwelling catheter at a dose of 0.1 ml/kg. The gastric secretion inhibitory action of the example compound was examined for 2 hours thereafter. On the second day (24 hours after administration of the example compound), histamine was continuously administered intravenously for 2 hours and gastric juice was taken every 20 minutes to examine the gastric secretion inhibitory action duration. After measuring the gastric juice volume, 0.5 ml of gastric juice was sampled and subjected to neutralization titration to pH 7.0 with a 0.04 mol/l sodium hydroxide solution to measure the acid concentration. The acid concentration was multiplied by the gastric juice volume to determine the gastric acid output. The gastric secretion inhibitory action was evaluated by the gastric secretion inhibition (%) on the first day. The gastric secretion inhibitory action (%) was determined by the formula shown below. Where two or more cases were examined, the average of all the cases was determined.
Gastric secretion inhibitory action (%)=(A−B)/A×100
[A]: Gastric acid output during 20 minutes, from 40 minutes to 1 hour after start of histamine administration [B]: Gastric acid output during 20 minutes, from 1 hour and 40 minutes to 2 hours after administration of example compound
The gastric secretion inhibitory action duration was evaluated by the gastric secretion inhibition (%) on the second day. The gastric secretion inhibitory action duration (%) was determined by the formula shown below.
Gastric secretion inhibitory action duration (%)=(C−D)/C×100
[C]: Total gastric acid output from start to one hour after histamine administration on the first day [D]: Total gastric acid output from start to one hour after histamine administration on the second day

In the case of `Cc1cnc(C[S+]([O-])c2nc3ccccc3[n-]2)c(C)c1OCC1COC(C)(C)OC1.[Na+]` [Compound A, Sodium salt of (R)-2-({[4-(2,2-dimethyl-1,3-dioxan-5-yl)methoxy-3,5-dimethylpyridin-2-yl]methyl}sulfinyl)-1H-benzimidazole], the “Gastric secretion inhibitory action (%)” value (0.1 mg/kg, average of 4 cases) is reported as 8%, the “Gastric secretion inhibition duration (%)” value (0.1 mg/kg, 4 cases) is reported as 6% and the “Gastric secretion inhibitory action (%)” value (0.2 mg/kg, average of 4 cases) is reported as 65%. The “Gastric secretion inhibition duration (%)” value (0.2 mg/kg, 4 cases) was 46%, the “Gastric secretion inhibitory action (%)” value (0.4 mg/kg, average of 10 cases) was 97% and the “Gastric secretion inhibition duration (%)” value (0.4 mg/kg, 10 cases) was 77%. The “Gastric secretion inhibitory action (%)” value (0.8 mg/kg, average of 8 cases) was 100% and the “Gastric secretion inhibition duration (%)” value (0.8 mg/kg, 8 cases) was 89%.
